The text below walks through data of US5019584A, “Therapeutically active chloro substituted benzimidazole” (priority 1988, dated 1991).

Where two headings read alike, the source gives them in different places.

In general, ED50 refers to the dose that gives a 50% effect, or the effect in half of the subjects.

Data set [1] is described as follows: Chemical Stability in aqueous buffer solution at pH 7. Type of data set: physicochemical. Conditions: pH 7, 37° C., low concentration; for half-life: read-out: Chemical Stability at pH 7, half-life (t 1/2) (converted). As to the method:
The chemical stability of various compounds of the invention has been followed kinetically at low concentration at 37° C. in aqueous buffer solution at different pH values. The results in Table 3 show the half life (t 1/2) at pH 7, that is the time period after which half the amount of the original compound remains unchanged.

Data set [2] has as its system gastric acid secretion (stimulated with histamine dihydrochloride). Put plainly: Inhibition of Gastric Acid Secretion in the Conscious Dog. The data set is classed as in vivo, Harrier dog, either sex. Conditions: for ED50: Canis lupus familiaris, dog, acid output 2 h after dosing. As to the method: (§1) The potency for inhibition of acid secretion has been measured in the male rat and the dog, both intravenously and intraduodenally. When it comes to relevance of the animal test data for potency of a given compound in man for the present type of compounds, it is believed that potency in man will correspond to a level somewhere between what is measured in the male rat and what is measured in the dog.
Inhibition of Gastric Acid Secretion and Bioavailability in the Conscious Dog.
Harrier dogs of either sex were used. They were equipped with a duodenal fistula for the administration of test compounds or vehicle and a cannulated ventricular fistula for the collection of gastric secretions.
Before secretory tests the animals were fasted for about 18 h but water was freely allowed. Gastric acid secretion was stimulated by a 4 h infusion of histamine dihydrochloride (12 ml/h) at a dose producing about 80% of the individual maximal secretory response, and gastric juice collected in consecutive 30-min fractions. Test substance or vehicle was given id or iv 1 h after starting the histamine infusion, in a volume of 0.5 ml/kg body weight. The acidity of the gastric juice samples were determined by titration to pH 7.0, and the acid output calculated. The acid output in the collection periods after administration of test substance or vehicle were expressed as fractional responses, setting the acid output in the fraction preceding administration to 1.0. Percentage inhibition was calculated from fractional responses elicited by test compound and vehicle. ED50 --values were obtained by graphical interpolation on log dose-response curves, or estimated from single-dose experiments under the assumption of the same slope of the dose-response curve for all test compounds. All results reported are based on acid output 2 h after dosing.

Data set [3] can be described thus: Bioavailability in the Male Rat (AUC method). Type of data set: in vivo, Sprague-Dawley. To be noted: blood, 4 umol/kg, AUC id vs iv, 4 μmol/kg, read-out: Bioavailability measured by the AUL-method, F %, Rat. As to the method:
Bioavailability is assessed by calculating the quotient between the area under plasma concentration (AUC) curve following intraduodenal (id) administration and intravenous (iv) administration from the rat or the dog. Low, therapeutically relevant doses, were used. This method is scientifically recognized as valid for assessing bioavailability (see for instance: M. Rowland and T.N. Tozer, Clinical Pharmacokinetics, 2nd ed., Lea & Febiger, London 1989, p 42). Bioavailability in the Male Rat. Male adult rats of the Sprague-Dawley strain were used. One day, prior to the experiments, all rats were prepared by cannulation of the left carotid artery under anaesthesia. The rats used for the intravenous experiments, were also cannulated in the jugular vein. (Ref. V Popovic and P Popovic, J Appl Physiol 1960;15,727-728). The rats used for the intraduodenal experiments, were also cannulated in the upper part of the duodenum. The cannulas were exteriorized at the nape of the neck. […] The area under the blood concentration vs time curve, AUC, was determined by the linear trapezoidal rule and extrapolated to infinity by dividing the last determined blood concentration by the elimination rate constant in the terminal phase. The systemic bioavailability (F %) following intraduodenal administration was calculated as [formula]

For data set [4], the system named is gastric acid secretion (stimulated with pentagastrin and carbachol). Put plainly: Inhibition of Gastric Acid Secretion in the Conscious Male Rat. Type of data set: in vivo, Sprague-Dawley. To be noted: 2 h, acid secretion during second hour after administration. As to the method: (§2) Since the bioavailability model described above is time and labour intensive, and requires a large number of plasma analyses, also a rough screening model, based on relative potencies to inhibit acid secretion, has been used (see for instance: A. Goth, Medical Pharmacology, 7th ed., C. V. Mosby Company, Saint Louis 1974, p 19). Thus, the ratio (called "Bioavailability" in Table 3) between the ED50 at intravenous administration and the ED50 at intraduodenal administration was calculated.
as §1
(§3) Inhibition of Gastric Acid Secretion in the Conscious Male Rat.
(§4) Male rats of the Sprague-Dawley strain were used. They were equipped with cannulated fistulae in the stomach (lumen) and the upper part of the duodenum, for collection of gastric secretions and administration of test substances, respectively. A fourteen days recovery period after surgery was allowed before testing commenced.
(§5) Before secretory tests, the animals were deprived of food but not water for 20 h. The stomach was repeatedly washed through the gastric cannula, and 6 ml of Ringer-Glucose given s.c. Acid secretion was stimulated with a infusion during 3.5 h (1.2 ml/h, s.c.) of pentagastrin and carbachol (20 and 110 nmol/kg h, respectively), during which time gastric secretions were collected in 30-min fractions. Test substances or vehicle were given iv or id at 90 min after starting the stimulation, in a volume of 1 ml/kg. Gastric juice samples were titrated to pH 7.0 with NaOH, 0.1 mol/L, and acid output calculated as the product of titrant volume and concentration. Further calculations were based on group mean responses from 4-5 rats. The acid output during the periods after administration of test substances or vehicle were expressed as fractional responses, setting the acid output in the 30-min period preceding administration to 1.0. Percentage inhibition was calculated from the fractional responses elicited by test compound and vehicle. ED50 values were obtained from graphical interpolation on log dose-response curves, or estimated from single-dose experiments assuming a similar slope for all dose-response curves. An estimation of the bioavailability was obtained by calculating the ratio ED50 iv /ED50 id. The results reported are based on gastric acid secretion during the second hour after drug/vehicle administration.

Assay in data set [5]: as above
The data set is classed as in vivo, Sprague-Dawley. To be noted: in vivo, ratio ED50 iv/ED50 id, read-out: "Bioavailability" measured by the Rough Screening Model, Rat ED50 iv/ED50 id (%). As to the method:
as §2, §1, §3, §4, §5

[6] abbreviates: route id (intraduodenal), Ref. value: estimated from one dog (footnote 1), read-out: Inhibition of acid secretion, Dog ED50, id.
[7] abbreviates: route id (intraduodenal), read-out: Inhibition of acid secretion, Rat ED50, id.
Where [8] appears, read: route iv, read-out: Inhibition of acid secretion, Rat ED50, iv.

Take `COc1ccnc(C[S+]([O-])c2nc3cc(Cl)ccc3[nH]2)c1OC` (centres unmarked) [Example 1, 5-chloro-2-[[(3,4-dimethoxy-2-pyridinyl)methyl]sulfinyl]-1H-benzimidazole]: in data set [1], the “Chemical Stability at pH 7, half-life (t 1/2)” value was 30 h. Further, the half-life in data set [1] is 30 h. The ED50 in data set [2] (setting [6]) is 1.2 µmol/kg; in data set [2] (route iv, Example 1 value: only one dog (footnote 2), read-out: Inhibition of acid secretion, Dog ED50, iv), 1.75 µmol/kg; in data set [4] (setting [7]) it was 2.6 µmol/kg; in data set [4] (setting [8]) it was 1.3 µmol/kg. For the same compound, the bioavailability in data set [3] amounted to 97%; in data set [5] it was 50%.
On to `COc1ccnc(C[S+]([O-])c2nc3cc(F)ccc3[nH]2)c1OC` (centres unmarked) [Ref., 5-fluoro-2-[[(3,4-dimethoxy-2-pyridinyl)methyl]sulfinyl]-1H-benzimidazole], for which the “Chemical Stability at pH 7, half-life (t 1/2)” value in data set [1] was 58 h. Besides, the half-life in data set [1] is 58 h. Moreover, the results for the median effective dose (ED50) in data set [2] (setting [6]), in data set [4] (setting [7]) and in data set [4] (setting [8]) were 1.1 µmol/kg, 1.75 µmol/kg and 0.85 µmol/kg, respectively. Further, in data set [2] (Dog 1, 1.0 μmol/kg, id), the “effect on acid secretion at 1.0 μmol/kg” value is recorded as “no effect”. In data set [2] (Dog 2, 2.0 μmol/kg, id), the “inhibition of acid secretion at 2.0 μmol/kg” value was 70%. Also, the bioavailability was 47% in data set [3] and 49% in data set [5].
